The record followed here is US6143769A, “Phenylacetic acid benzylamides” (Karl Thomae GmbH, priority 1983, dated 2000).

This test has as its system blood glucose. As to the kind of experiment: Test for hypoglycemic activity in fasted female rats (oral). The following applies: for change in vivo at 0.5 mg/kg / change in vivo at 1 mg/kg: Rattus norvegicus, po, read-out: Change in glucose content compared with control. Format: in vivo. The protocol: Blood samples were taken immediately before the administration of the test compound and 1, 2, 3 and 4 hours afterwards, in each case from the retroorbital Venous plexus. 50 μl of each sample were deproteinated with 0.5 ml of 0.33 N perchloric acid and centrifuged. The glucose in the supernatant fluid was measured using the hexokinase method with the aid of an analytical photometer. The statistical evaluation was made using the t-test according to Student with p=0.05 as the limit of significance.

Where two headings read alike, the source gives them in different places.

On to `C=CCC(NC(=O)Cc1ccc(C(=O)O)c(OCC)c1)c1ccccc1N1CCCCC1` (centres unmarked) [W, 2-ethoxy-4-[N-(1-(2-piperidino-phenyl)-3-buten-1-yl)-aminocarbonylmethyl]benzoic acid], for which the change in vivo at 0.5 mg/kg is, setting by setting: (0.5 mg/kg, 1 h) -42%; (0.5 mg/kg, 2 h) -39%; (0.5 mg/kg, 3 h) -28%; (0.5 mg/kg, 4 h) -35%.

Regarding `CCCC(NC(=O)Cc1ccc(CC#N)c(OCC)c1)c1ccccc1N1CCCCC1` (centres unmarked) [O, [2-ethoxy-4-[N-(1-(2-piperidino-phenyl)-1-butyl)-aminocarbonylmethyl]-phenyl]-acetonitrile], the change in vivo at 1 mg/kg runs as follows: (1 mg/kg, 1 h) -29%; (1 mg/kg, 2 h) -37%; (1 mg/kg, 3 h) -35%; (1 mg/kg, 4 h) -34%.

Turning to `CCCC(NC(=O)Cc1ccc(C(=O)O)c(OC)c1)c1ccccc1N1CCCCC1` (centres unmarked) [I, 2-methoxy-4-[N-{1-(2-piperidino-phenyl)-1-butyl}-aminocarbonylmethyl]-benzoic acid], the change in vivo at 0.5 mg/kg is, setting by setting: (0.5 mg/kg, 1 h) -42%; (0.5 mg/kg, 2 h) -39%; (0.5 mg/kg, 3 h) -37%; (0.5 mg/kg, 4 h) -30%.

For the compound `CCOc1cc(CC(=O)NC(CC2CCCCC2)c2ccccc2N2CCCCC2)ccc1C(=O)O` (stereo not drawn) [Q, 2-ethoxy-4-[N-(α-cyclohexylmethyl-2-piperidino-benzyl)-aminocarbonyl-methyl]-benzoic acid], the change in vivo at 0.5 mg/kg is, setting by setting: (0.5 mg/kg, 1 h) -22%; (0.5 mg/kg, 2 h) -47%; (0.5 mg/kg, 3 h) -45%; (0.5 mg/kg, 4 h) -45%.

Regarding `COc1cc(CC(=O)NC(C)c2ccccc2N2CCCCC2)ccc1C(=O)O` (centres unmarked) [Compound A, 2-methoxy-4-[N-{1-(2-piperidino-phenyl)-1-ethyl}-aminocarbonylmethyl]-benzoic acid], the change in vivo at 1 mg/kg (1 mg/kg, 1 h) is -37%; the change in vivo at 1 mg/kg (1 mg/kg, 2 h) is -46%; the change in vivo at 1 mg/kg (1 mg/kg, 3 h) is -23%; the change in vivo at 1 mg/kg (1 mg/kg, 4 h) is -14%.

In the case of `CCOC(=O)C(NC(=O)Cc1ccc(C(=O)O)c(OCC)c1)c1ccccc1N1CCCCC1` (stereo not drawn) [R, 2-ethoxy-4-[N-(α-ethoxycarbonyl-2-piperidino-benzyl)-aminocarbonylmethyl]-benzoic acid], the “Change in glucose content compared with control” value (“Change in glucose content” for short) was “n.s” (1 mg/kg, 3 h) and “n.s” (1 mg/kg, 4 h). In addition, the change in vivo at 1 mg/kg runs as follows: (1 mg/kg, 1 h) -33%; (1 mg/kg, 2 h) -17%.

As for `CCOc1cc(CC(=O)NC(c2ccccc2)c2ccc(C)cc2N2CCCCC2)ccc1C(=O)O` (stereo not drawn) [M, 2-ethoxy-4-[N-(4-methyl-α-phenyl1-2-piperidino-benzyl)-aminocarbonylmethyl]-benzoic acid], the change in vivo at 1 mg/kg is -44% (1 mg/kg, 1 h); -41% (1 mg/kg, 2 h); -35% (1 mg/kg, 3 h); -27% (1 mg/kg, 4 h).

Regarding `CCOc1cc(CC(=O)NC(C(=O)OC(C)C)c2ccccc2N2CCCCC2)ccc1C(=O)O` (stereo not drawn) [T, 2-ethoxy-4-[N-(α-isopropoxycarbonyl-2-piperidino-benzyl)-aminocarbonylmethyl]benzoic acid], for the setting “1 mg/kg, 4 h”, the “Change in glucose content” value is reported as “n.s”. Also, the change in vivo at 1 mg/kg was -36% (1 mg/kg, 1 h); -21% (1 mg/kg, 2 h); -18% (1 mg/kg, 3 h).

With `C=C(C)CC(NC(=O)Cc1ccc(C(=O)O)c(OCC)c1)c1ccccc1N1CCCCC1` (centres unmarked) [X, 2-ethoxy-4-[N-(1-(2-piperidino-phenyl)-3-methyl-3-buten-1-yl)-aminocarbonylmethyl]benzoic acid], the change in vivo at 0.5 mg/kg was -44% (0.5 mg/kg, 1 h); -41% (0.5 mg/kg, 2 h); -31% (0.5 mg/kg, 3 h); -28% (0.5 mg/kg, 4 h).

With `CCCC(NC(=O)Cc1ccc(C(=O)O)c(OCC)c1)c1ccccc1N1CCCC1` (centres unmarked) [G, sodium 2-ethoxy-4-[N-{1-(2-pyrrolidino-phenyl)-1-butyl}-aminocarbonylmethyl]-benzoate], the change in vivo at 0.5 mg/kg was -40% (0.5 mg/kg, 1 h); -33% (0.5 mg/kg, 2 h); -30% (0.5 mg/kg, 3 h); -17% (0.5 mg/kg, 4 h).

In the case of `CCOc1cc(CC(=O)NC(CC2CCCO2)c2ccccc2N2CCCCC2)ccc1C(=O)O` (stereo not drawn) [V, 2-ethoxy-4-[N-(α-(tetrahydrofuran-2-yl-methyl)-2-piperidino-benzyl)-aminocarbonylmethyl]benzoic acid], the change in vivo at 0.5 mg/kg (0.5 mg/kg, 1 h) is -46%; the change in vivo at 0.5 mg/kg (0.5 mg/kg, 2 h) was -25%; the change in vivo at 0.5 mg/kg (0.5 mg/kg, 3 h) was -13%; the change in vivo at 0.5 mg/kg (0.5 mg/kg, 4 h) is -10%.

In the case of `CCCC(NC(=O)Cc1ccc(C(=O)O)c(OCC)c1)c1ccccc1N1CCCCC1` (centres unmarked) [B, 2-ethoxy-4-[N-{1-(2-piperidino-phenyl)-1-butyl}-aminocarbonylmethyl]-benzoic acid], the change in vivo at 0.5 mg/kg runs as follows: (0.5 mg/kg, 1 h) -43%; (0.5 mg/kg, 2 h) -36%; (0.5 mg/kg, 3 h) -34%; (0.5 mg/kg, 4 h) -35%. The change in vivo at 1 mg/kg reads like this: (1 mg/kg, 1 h) -38%; (1 mg/kg, 2 h) -49%; (1 mg/kg, 3 h) -38%; (1 mg/kg, 4 h) -33%.

As to `COc1cc(CC(=O)NC(c2ccccc2)c2ccccc2N2CCCCC2)ccc1C(=O)O` (stereo not drawn) [C, 2-methoxy-4-[N-(α-phenyl-2-piperidino-benzyl)-aminocarbonymethyl]-benzoic acid], the change in vivo at 1 mg/kg is, setting by setting: (1 mg/kg, 1 h) -38%; (1 mg/kg, 2 h) -41%; (1 mg/kg, 3 h) -38%; (1 mg/kg, 4 h) -34%.

On to `CCOc1cc(CC(=O)NC(c2ccccc2)c2ccccc2N2CCCCC2)ccc1CC#N` (stereo not drawn) [P, [2-ethoxy-4-[N-(α-phenyl-2-piperidino-benzyl)-aminocarbonylmethyl]-phenyl]acetonitrile], for which the change in vivo at 1 mg/kg was -12% (1 mg/kg, 1 h); -10% (1 mg/kg, 2 h); -14% (1 mg/kg, 3 h); -14% (1 mg/kg, 4 h).

In the case of `CCOc1cc(CC(=O)NC(C)c2ccccc2N2CCCCC2)ccc1C(=O)O` (centres unmarked) [F, 2-ethoxy-4-[N-{1-(2-piperidino-phenyl)-1-ethyl}-aminocarbonylmethyl]-benzoic acid], the change in vivo at 1 mg/kg is -44% (1 mg/kg, 1 h); -44% (1 mg/kg, 2 h); -40% (1 mg/kg, 3 h); -30% (1 mg/kg, 4 h).

`CCCC(NC(=O)Cc1ccc(C(=O)O)c(OCC)c1)c1ccccc1N1CCCCC1` (single isomer, unassigned; (+)) [E, (+)-2-ethoxy-4-[N-{1-(2-piperidino-phenyl)-1-butyl}-aminocarbonylmethyl]-benzoic acid]: the change in vivo at 0.5 mg/kg is -40% (0.5 mg/kg, 1 h); -39% (0.5 mg/kg, 2 h); -36% (0.5 mg/kg, 3 h); -36% (0.5 mg/kg, 4 h).

For `CCCCC(NC(=O)Cc1ccc(C(=O)O)c(OCC)c1)c1ccccc1N1CCCCC1` (centres unmarked) [L, 2-ethoxy-4-[N-{1-(2-piperidino-phenyl)-1-pentyl}-aminocarbonylmethyl]-benzoic acid], the change in vivo at 0.5 mg/kg runs as follows: (0.5 mg/kg, 1 h) -42%; (0.5 mg/kg, 2 h) -45%; (0.5 mg/kg, 3 h) -38%; (0.5 mg/kg, 4 h) -39%.

As for `CCOc1cc(CC(=O)NC(CC2CC2)c2ccccc2N2CCCCC2)ccc1C(=O)O` (stereo not drawn) [U, 2-ethoxy-4-[N-(α-cyclopropylmethyl-2-piperidino-benzyl)-aminocarbonylmethyl]benzoic acid], the change in vivo at 0.5 mg/kg reads like this: (0.5 mg/kg, 1 h) -45%; (0.5 mg/kg, 2 h) -45%; (0.5 mg/kg, 3 h) -36%; (0.5 mg/kg, 4 h) -36%.

As to `CCOc1cc(CC(=O)NC(C(=O)OC)c2ccccc2N2CCCCC2)ccc1C(=O)O` (stereo not drawn) [S, 2-ethoxy-4-[N-(α-methoxycarbonyl-2-piperidino-benzyl)-aminocarbonylmethyl]-benzoic acid], the change in vivo at 1 mg/kg reads like this: (1 mg/kg, 1 h) -42%; (1 mg/kg, 2 h) -35%; (1 mg/kg, 3 h) -28%; (1 mg/kg, 4 h) -18%.

With `CCCC(NC(=O)Cc1ccc(C(=O)O)c(OCC)c1)c1ccccc1N1CCCCCC1` (centres unmarked) [H, 2-ethoxy-4-[N-{1-(2-hexamethyleneimino-phenyl)-1-butyl}-aminocarbonylmethyl]-benzoic acid], the “Change in glucose content” value (0.5 mg/kg, 4 h) is listed as “n.s”. The change in vivo at 0.5 mg/kg (0.5 mg/kg, 1 h) was -42%; the change in vivo at 0.5 mg/kg (0.5 mg/kg, 2 h) is -34%; the change in vivo at 0.5 mg/kg (0.5 mg/kg, 3 h) was -18%.

With `C#CCC(NC(=O)Cc1ccc(C(=O)O)c(OCC)c1)c1ccccc1N1CCCCC1` (centres unmarked) [Y, 2-ethoxy-4-[N-(1-(2-piperidino-phenyl)-3-butyn-1-yl)-aminocarbonylmethyl]benzoic acid], the “Change in glucose content” value (0.5 mg/kg, 4 h) was “n.s”. Further, the change in vivo at 0.5 mg/kg reads like this: (0.5 mg/kg, 1 h) -33%; (0.5 mg/kg, 2 h) -18%; (0.5 mg/kg, 3 h) -11%.

Consider `CCCOc1cc(CC(=O)NC(CCC)c2ccccc2N2CCCCC2)ccc1C(=O)O` (centres unmarked) [K, 2-n-propoxy-4-[N-{1-(2-piperidino-phenyl)-1-butyl}-aminocarbonylmethyl]-benzoic acid], for which the “Change in glucose content” value (0.5 mg/kg, 4 h) is listed as “n.s”. For the same compound, the change in vivo at 0.5 mg/kg is -34% (0.5 mg/kg, 1 h); -36% (0.5 mg/kg, 2 h); -24% (0.5 mg/kg, 3 h).
